Reference: US7459444B2, “Inhibitors of chymase” (Janssen Pharmaceutica N.V., priority 2004, dated 2008)

Target: T1, human skin chymase (Homo sapiens, UniProt P23946)
T1 construct: using human skin chymase (Cortex Biochem); purchased Cortex Biochem
T1 sequence (P23946 22-247): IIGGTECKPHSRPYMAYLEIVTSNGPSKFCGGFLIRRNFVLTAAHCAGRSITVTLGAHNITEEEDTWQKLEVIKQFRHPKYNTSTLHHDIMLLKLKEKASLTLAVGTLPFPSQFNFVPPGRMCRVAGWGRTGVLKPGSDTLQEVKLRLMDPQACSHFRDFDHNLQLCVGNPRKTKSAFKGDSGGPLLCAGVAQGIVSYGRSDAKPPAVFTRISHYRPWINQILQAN
Assay: Enzyme-catalyzed hydrolysis assay (chymase inhibition)
Format: biochemical
Details: 10 nM enzyme, 0.7 mM Suc-Ala-Ala-Pro-Phe-pNa, pH 8.0, 37° C., 30 minutes
Method: Enzyme-catalyzed hydrolysis rates were measured spectro-photometrically using human skin chymase (Cortex Biochem), a chromogenic substrate (Suc-Ala-Ala-Pro-Phe-pNa) (Bachem) in aqueous buffer (450 mM Tris, 1800 mM NaCl, pH 8.0), and a microplate reader (Molecular Devices). […] Percent inhibition was calculated by comparing the initial reaction slopes of the samples without inhibitor to those with inhibitor. IC50 values were determined using a four parameter fit logistics model. The term “NT” indicates a compound that was not tested.

Going from `Nc1ccc(/C=C/NC(=O)C(c2csc3ccc(Cl)cc23)P(=O)(O)O)cc1` (stereo not drawn) [Cpd 12] to `O=C(NC=Cc1ccc(C(F)(F)F)cc1)C(c1csc2ccc(Cl)cc12)P(=O)(O)O` (stereo not drawn) [Cpd 81], the IC50 rises from 0.038 ± 0.013 µM to 1.7 ± 0.21 µM (45-fold). The first is the more potent here.

`Nc1nc2ccc(NC(=O)C(c3csc4ccc(Cl)cc34)P(=O)(O)O)cc2s1` (stereo not drawn) [Cpd 69, [(5-Chloro-benzo[b]thiophen-3-yl)-(2-amino-4-benzothioazol-6-ylcarbamoyl)-methyl]-phosphonic acid] and `O=C(Nc1ccc2ncsc2c1)C(c1csc2ccc(Cl)cc12)P(=O)(O)O` (stereo not drawn) [Cpd 30] are within error of each other in IC50: 0.93 ± 0.95 µM for the first, 0.17 ± 0.01 µM for the second.

`O=C(Nc1cc2ccccc2cc1CNCc1ccccc1)C(c1cccc2ccccc12)P(=O)(O)O` (stereo not drawn) [Cpd 107] and `O=C(Nc1cc2ccccc2cc1OCc1ccccc1)C(c1cccc2ccccc12)P(=O)(O)O` (stereo not drawn) [Cpd 122, [(3-Benzyloxy-naphthalen-2-ylcarbamoyl)-naphthalen-1-yl-methyl]-phosphonic acid] are within error of each other in IC50: 4.3 ± 0.03 µM for the first, 5.94 ± 1.69 µM for the second.

`CP(=O)(O)C(C(=O)N/C=C/c1ccccc1F)c1csc2ccc(Cl)cc12` (stereo not drawn) [Cpd 21] and `CP(=O)(O)C(C(=O)N/C=C/c1ccccc1Br)c1csc2ccc(Cl)cc12` (stereo not drawn) [Cpd 164] are within error of each other in IC50: 0.08 ± 0.02 µM for the first, 0.1 ± 0.02 µM for the second.

`Nc1cc2ccccc2cc1NC(=O)C(c1cccc2ccccc12)P(=O)(O)O` (stereo not drawn) [Cpd 132] and `CC(C)OC(=O)c1cc2ccccc2cc1NC(=O)C(c1cccc2ccccc12)P(=O)(O)O` (stereo not drawn) [Cpd 139] are within 1.5-fold of each other in IC50: 7.9 µM for the first, 8.8 µM for the second.

Going from `CP(=O)(O)C(C(=O)Nc1cc2ccccc2o1)c1csc2ccc(Cl)cc12` (stereo not drawn) [Cpd 146] to `CP(=O)(O)C(C(=O)NC=Cc1ccccc1N)c1csc2ccc(Cl)cc12` (stereo not drawn) [Cpd 151, [[2-(2-Amino-phenyl)-vinylcarbamoyl]-(5-chloro-benzo[b]thiophen-3-yl)-methyl]-methyl-phosphinic acid], the IC50 rises from 0.11 µM to 0.4 ± 0.12 µM (3.6-fold).

`O=C(Nc1cc2ccccc2cc1C(=O)N1CCC(S(=O)(=O)c2ccccc2)C1)C(c1cccc2ccccc12)P(=O)(O)O` (stereo not drawn) [Cpd 103] and `O=C(Nc1cc2ccccc2cc1C(=O)N1CCC(c2ccccc2)CC1)C(c1cccc2ccccc12)P(=O)(O)O` (stereo not drawn) [Cpd 101] are within 1.5-fold of each other in IC50: 3.63 µM for the first, 3.12 µM for the second.

`NS(=O)(=O)OCC(C(=O)Nc1ccc2ccccc2c1)c1csc2ccc(Cl)cc12` (stereo not drawn) [Cpd 120, Sulfamic acid 2-(5-chloro-benzo[b]thiophen-3-yl)-2-(naphthalen-2-ylcarbamoyl)-ethyl ester] and `O=C(Nc1ccc2ccccc2c1)C(CO)c1csc2ccc(Cl)cc12` (stereo not drawn) [Cpd 136, 2-(5-Chloro-benzo[b]thiophen-3-yl)-3-hydroxy-N-naphthalen-2-yl-propionamide] are within 1.5-fold of each other in IC50: 5.86 ± 1.08 µM for the first, 8.63 ± 0.81 µM for the second.

Going from `O=C(Nc1ccc2ccccc2n1)C(c1cccc2ccccc12)P(=O)(O)O` (stereo not drawn) [Cpd 96] to `O=C(Nc1cc2ccccc2s1)C(c1cccc2ccccc12)P(=O)(O)O` (stereo not drawn) [Cpd 64], the IC50 falls from 2.8 µM to 0.83 ± 0.08 µM (3.4-fold). The second is the more potent here.

`COc1cccc(/C=C/NC(=O)C(c2csc3ccc(Cl)cc23)P(C)(=O)O)c1OC` (stereo not drawn) [Cpd 165] and `COc1ccccc1/C=C/NC(=O)C(c1csc2ccc(Cl)cc12)P(C)(=O)O` (stereo not drawn) [Cpd 145] are within error of each other in IC50: 0.078 ± 0.03 µM for the first, 0.035 ± 0.02 µM for the second.

`CP(=O)(O)C(C(=O)N/C=C/c1cc(F)ccc1F)c1csc2ccc(Cl)cc12` (stereo not drawn) [Cpd 169] and `CP(=O)(O)C(C(=O)N/C=C/c1cc(F)c(F)c(F)c1)c1csc2ccc(Cl)cc12` (stereo not drawn) [Cpd 16] are within 1.5-fold of each other in IC50: 0.042 µM for the first, 0.055 ± 0.005 µM for the second.

Going from `Cn1cc(C(C(=O)Nc2ccc3ccccc3c2)P(=O)(O)O)c2cccnc21` (stereo not drawn) [Cpd 116] to `Cn1cc(C(C(=O)Nc2ccc3ccccc3c2)P(=O)(O)O)c2cccc(Cl)c21` (stereo not drawn) [Cpd 58], the IC50 falls from 5.4 µM to 0.63 ± 0.13 µM (8.6-fold). The second is the more potent here.

Going from `CP(=O)(O)C(C(=O)N/C=C/c1cccc(OC(F)(F)F)c1)c1csc2ccc(Cl)cc12` (stereo not drawn) [Cpd 153] to `CP(=O)(O)C(C(=O)NC=Cc1cccc(C(F)(F)F)c1)c1csc2ccc(Cl)cc12` (stereo not drawn) [Cpd 152], the IC50 rises from 0.06 ± 0.01 µM to 0.13 ± 0.03 µM (2.2-fold).

Going from `O=C(Nc1cc2ccccc2cc1NC(=O)C(c1cccc2ccccc12)P(=O)(O)O)C1CCN(C(=O)c2ccc3ccccc3c2)CC1` (stereo not drawn) [Cpd 141, [(3-{[1-(Naphthalene-2-carbonyl)-piperidine-4-carbonyl]-amino}-naphthalen-2-ylcarbamoyl)-naphthalen-1-yl-methyl]-phosphonic acid] to `O=C(Nc1cc2ccccc2cc1C(=O)N1CCC(c2c[nH]c3ccccc23)CC1)C(c1cccc2ccccc12)P(=O)(O)O` (stereo not drawn) [Cpd 83], the IC50 falls from 9.5 µM to 1.72 µM (5.5-fold).

Compared with `O=C(Nc1cc2ccccc2cc1OCC=Cc1ccccc1)C(c1cccc2ccccc12)P(=O)(O)O` (stereo not drawn) [Cpd 121], `O=C(Nc1ccccc1)Oc1cc2ccccc2cc1NC(=O)C(c1cccc2ccccc12)P(=O)(O)O` (stereo not drawn) [Cpd 95, [Naphthalen-1-yl-(3-phenylcarbamoyloxy-naphthalen-2-yl-carbamoyl)-methyl]-phosphonic acid] is 2.1-fold lower in IC50: 5.9 µM for the first, 2.8 µM for the second.

`Cn1cc(C(C(=O)Nc2ccc3ccccc3c2)P(=O)(O)O)c2c(Cl)cccc21` (stereo not drawn) [Cpd 63, [(4-Chloro-1-methyl-1H-indol-3-yl)-(naphthalen-2-ylcarbamoyl)-methyl]-phosphonic acid] and `Cn1cc(C(C(=O)Nc2ccc3ccccc3c2)P(=O)(O)O)c2cc(C(=O)O)ccc21` (stereo not drawn) [Cpd 56, 1-Methyl-3-[(naphthalen-2-ylcarbamoyl)-phosphono-methyl]-1H-indole-5-carboxylic acid] are within error of each other in IC50: 0.83 ± 0.18 µM for the first, 0.606 ± 0.13 µM for the second.

Compared with `O=C(Nc1ccc2ccccc2c1)C(c1csc2cccc(Br)c12)P(=O)(O)O` (stereo not drawn) [Cpd 99], `O=C(Nc1ccc2ccccc2c1)C(c1csc2ccc(Br)cc12)P(=O)(O)O` (stereo not drawn) [Cpd 23, [(5-Bromo-benzo[b]thiophen-3-yl)-(naphthalen-2-ylcarbamoyl)-methyl]-phosphonic acid] is 30-fold lower in IC50: 2.96 ± 1.18 µM for the first, 0.1 ± 0.03 µM for the second.

Going from `O=C(Nc1cc2ccccc2cc1CNCCCCCO)C(c1cccc2ccccc12)P(=O)(O)O` (stereo not drawn) [Cpd 133] to `CC1CCCC(NCc2cc3ccccc3cc2NC(=O)C(c2cccc3ccccc23)P(=O)(O)O)C1` (stereo not drawn) [Cpd 90], the IC50 falls from 8.08 ± 3.15 µM to 2.15 µM (3.8-fold). The second is the more potent here.

`CP(=O)(O)C(C(=O)N/C=C/c1cccc([N+](=O)[O-])c1)c1csc2ccc(Cl)cc12` (stereo not drawn) [Cpd 166] and `CP(=O)(O)C(C(=O)N/C=C/c1cccc(N)c1)c1csc2ccc(Cl)cc12` (stereo not drawn) [Cpd 172] are within error of each other in IC50: 0.0387 ± 0.02 µM for the first, 0.041 ± 0.02 µM for the second.

First: CC(C)n1cc(C(C(=O)Nc2ccc3ccccc3c2)P(=O)(O)O)c2ccccc21 (stereo not drawn) [Cpd 77]
Second: O=C(Nc1ccc2ccccc2c1)C(c1cccc2c1ccn2-c1ccccc1)P(=O)(O)O (stereo not drawn) [Cpd 128]
The IC50 of the first is 4.9-fold lower: 1.48 ± 0.45 µM for the first, 7.3 µM for the second. The first is the more potent here.

Compared with `CP(=O)(O)C(C(=O)NC=Cc1ccc(Cl)cc1)c1csc2ccc(Cl)cc12` (stereo not drawn) [Cpd 78], `CP(=O)(O)C(C(=O)N/C=C/c1cccc(Br)c1)c1csc2ccc(Cl)cc12` (stereo not drawn) [Cpd 167] is 88-fold lower in IC50: 1.5 ± 0.43 µM for the first, 0.017 ± 0.04 µM for the second. The second is the more potent here.

`O=C(Nc1ccc2sccc2c1)C(c1csc2ccc(Cl)cc12)P(=O)(O)O` (stereo not drawn) [Cpd 55] and `O=C(Nc1ccc2ccccc2c1)C(c1csc2ccc(F)cc12)P(=O)(O)O` (stereo not drawn) [Cpd 10] are within error of each other in IC50: 0.52 ± 0.51 µM for the first, 0.029 ± 0.01 µM for the second.

First: COCCCP(=O)(O)C(C(=O)Nc1ccc2ccccc2c1)c1csc2ccc(Cl)cc12 (stereo not drawn) [Cpd 34]
Second: CP(=O)(O)C(C(=O)N/C=C/c1ccccn1)c1csc2ccc(Cl)cc12 (stereo not drawn) [Cpd 150]
The IC50 of the first is 2.4-fold higher: 0.22 ± 0.01 µM for the first, 0.091 ± 0.02 µM for the second. The second is the more potent here.

With `CP(=O)(O)C(C(=O)N/C=C/c1cc(Cl)cc(Cl)c1)c1csc2ccc(Cl)cc12` (stereo not drawn) [Cpd 170] the IC50 was 0.0031 µM.

Tested on: not listed separately
Assay: Pharmacokinetic assay for evaluation of oral absorption potential
Format: in vivo
Details: male Sprague Dawley rats, oral gavage 15 mg/kg in 20% hydroxy-beta-cyclo dextran, plasma, N = 2; read-out: CMax (μM) @ 2 h
Method: Male Sprague Dawley rats, weighing 250-300 g, were fasted overnight then dosed by oral gavage at a level of 15 mg/kg with a compound. Compounds were formulated in 20% hydroxy-beta-cyclo dextran.
Blood samples (0.5 mL) were collected into lithium heparinized tubes at 0.5, 1.0 and 2.0 h post dose via orbital sinus puncture. Blood samples were centrifuged at 2000 rpm for ˜3 min for cell removal, approximately 200 μL of plasma supernatant was then transferred to a clean vial, frozen then placed on dry ice and delivered to SFBC Analytical Labs, Inc. for analysis.
Plasma samples were prepared as follows. Two hundred microliters of acetonitrile containing 1 μM internal standard was added to 100 μL of plasma to precipitate proteins. Samples were centrifuged at 5000 g for 5 min and supernatant removed for analysis by LC-MS. Two hundred microliters of water was added to adjust sample solvent strength and prevent peak splitting. Calibration standards were prepared by adding appropriate volumes of stock solution directly into plasma and treated identically to collected plasma samples. Calibration standards were prepared in the range of 0.1 to 10 μM for quantitation. LC-MS analysis was performed using MRM (Multiple Reaction Monitoring) detection of characteristic ions for each drug candidate and internal standard.

With `O=C(NC=Cc1ccccc1)C(c1cccc2ccccc12)P1(=O)OCCCO1` (stereo not drawn) [Cpd 178, 2-Naphthalen-1-yl-2-(2-oxo-2l5-[1,3,2]dioxaphosphinan-2-yl)-N-styryl-acetamide] the Cmax was 4.1 ± 0.28 µM.

Same assay, conditions: rat; male Sprague Dawley rats, oral gavage 15 mg/kg in 20% hydroxy-beta-cyclo dextran, plasma, N = 2

`CC(C)(C)C(=O)OCOP(=O)(O)C(C(=O)N/C=C/c1ccc(F)c(F)c1)c1csc2ccc(Cl)cc12` (stereo not drawn) [Cpd 187, 2,2-Dimethyl-propionic acid {(5-chloro-benzo[b]thiophen-3-yl)-[2-(3,4-difluoro-phenyl)-vinylcarbamoyl]-methyl}-hydroxy-phosphinoyloxymethyl ester] and `CC(C)(C)C(=O)OCOP(=O)(OCOC(=O)C(C)(C)C)C(C(=O)N/C=C/c1ccc(F)c(F)c1)c1csc2ccc(Cl)cc12` (stereo not drawn) [Cpd 186, 2,2-Dimethyl-propionic acid {(5-chloro-benzo[b]thiophen-3-yl)-[2-(3,4-difluoro-phenyl)-vinylcarbamoyl]-methyl}-(2,2-dimethyl-propionyloxymethoxy)-phosphinoyloxymethyl ester] are within error of each other in Cmax at 2 h: 21.4 ± 11 µM for the first, 20.1 ± 3.5 µM for the second.

With `CCN(CC)C(=O)COP(C)(=O)C(C(=O)NC=Cc1ccc(F)c(F)c1)c1csc2ccc(Cl)cc12` (stereo not drawn) [Cpd 185, {(5-Chloro-benzo[b]thiophen-3-yl)-[2-(3,4-difluoro-phenyl)-vinylcarbamoyl]-methyl}-methyl-phosphinic acid diethylcarbamoylmethyl ester] the Cmax at 2 h was 2.1 ± 0.23 µM.
